In patent US20140051679A1, “KINASE INHIBITORS AND METHOD OF TREATING CANCER WITH SAME” (UNIVERISTY HEALTH NETWORKS, priority 2011, published 2014) one finds IC50 and GI50 data, which are given here for eleven molecules.

For one test, the target named is T1, human PLK4 (Homo sapiens, UniProt O00444).
T1 construct: amino terminal GST fusion of residues 1-391 of human PLK4; made in house; host or cells: E. coli
T1 sequence (O00444 1-391): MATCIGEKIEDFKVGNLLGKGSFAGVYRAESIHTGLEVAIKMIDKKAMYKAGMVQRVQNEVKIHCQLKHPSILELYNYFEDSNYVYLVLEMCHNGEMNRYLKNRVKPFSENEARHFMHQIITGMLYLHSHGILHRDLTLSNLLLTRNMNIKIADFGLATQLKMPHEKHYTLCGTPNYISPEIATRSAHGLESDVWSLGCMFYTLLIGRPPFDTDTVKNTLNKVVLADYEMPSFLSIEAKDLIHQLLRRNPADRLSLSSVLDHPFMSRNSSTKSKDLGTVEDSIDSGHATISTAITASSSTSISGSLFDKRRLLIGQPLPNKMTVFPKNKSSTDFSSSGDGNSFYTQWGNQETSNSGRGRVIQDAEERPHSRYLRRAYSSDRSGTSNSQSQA
The test can be described thus: PLK4 inhibition assay (indirect ELISA). It counts as biochemical. To be noted: GST-PLK4 4 nM, 15 μM ATP; read-out: IC50 Ranges PLK4. The essentials:
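Compounds were tested either at a single 10 μM dose or across 10-point titrations (typically 0.5 to 0.001 μM), preincubated 15 min with 4 nM GST-PLK4 (human 1-391, dephosphorylated) before 15 μM ATP was added. MBP substrate phosphorylation over 30 min, pH 7.5 HEPES/MgCl2 buffer, read by HRP/TMB ELISA (450 nm). % inhibition vs. high-activity control; IC50 by logistic fit.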
Background: An ELISA detects its analyte on a solid surface through an enzyme-linked reagent.

Test [1] relates to HCT116 colon cancer cells. The test can be described thus: Cell growth inhibition, Sulforhodamine B assay, HCT116. It counts as cell-based. To be noted: 5 days culture, SRB assay, read-out: Cell Line GI50 Range HCT116. On the technique in general: In SRB staining, fixed cells bind dye roughly in proportion to their protein.
The next test has as its target T2, human TTK (Homo sapiens, UniProt P33981).
T2 construct: amino terminal GST fusion of full length human TTK; purchased Invitrogen
T2 sequence (P33981 1-857): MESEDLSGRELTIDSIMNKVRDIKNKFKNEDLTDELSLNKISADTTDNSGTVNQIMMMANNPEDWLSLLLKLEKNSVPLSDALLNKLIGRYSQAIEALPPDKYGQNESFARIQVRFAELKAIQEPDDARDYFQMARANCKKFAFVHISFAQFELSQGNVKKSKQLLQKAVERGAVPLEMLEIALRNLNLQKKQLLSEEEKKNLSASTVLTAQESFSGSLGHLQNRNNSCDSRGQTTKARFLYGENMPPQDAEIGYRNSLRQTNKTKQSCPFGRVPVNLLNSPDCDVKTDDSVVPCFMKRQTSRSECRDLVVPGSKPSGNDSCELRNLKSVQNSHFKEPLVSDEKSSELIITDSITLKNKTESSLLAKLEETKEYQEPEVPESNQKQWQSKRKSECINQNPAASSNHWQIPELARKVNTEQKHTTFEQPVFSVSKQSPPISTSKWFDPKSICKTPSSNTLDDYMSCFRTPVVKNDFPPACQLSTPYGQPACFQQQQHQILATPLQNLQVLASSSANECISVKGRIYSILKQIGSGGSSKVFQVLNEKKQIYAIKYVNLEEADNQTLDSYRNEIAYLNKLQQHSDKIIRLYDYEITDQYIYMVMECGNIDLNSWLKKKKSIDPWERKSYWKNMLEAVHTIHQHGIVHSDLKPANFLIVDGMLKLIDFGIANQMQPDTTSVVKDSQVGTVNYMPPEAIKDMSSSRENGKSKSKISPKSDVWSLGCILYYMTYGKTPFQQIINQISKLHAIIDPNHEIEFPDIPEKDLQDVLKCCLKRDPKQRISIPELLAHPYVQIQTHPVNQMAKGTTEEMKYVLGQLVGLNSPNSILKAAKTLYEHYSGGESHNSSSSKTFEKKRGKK
The test can be described thus: TTK inhibition assay (indirect ELISA). It counts as biochemical. To be noted: GST-TTK 0.68 nM, 16 μM ATP; read-out: IC50 Ranges TTK.

The test system of test [2] is PA-1 ovarian cancer cells. Kind of test: Cell growth inhibition, Sulforhodamine B assay, PA-1. The test is classed as cell-based. To be noted: 5 days culture, SRB assay, read-out: Cell Line GI50 Range PA-1.
Protocol: Breast cancer cells (MDA-MB-231, MDA-MB-468), colon cancer cells (HCT116, HT29) and ovarian cancer cells (PA-1, OVCAR-3) were seeded (1000 to 4000 in 80 μl per well depending on the cell growth rate) into 96 well plates 24 hours before compound overlay. Compounds were prepared as 10 mM stock solutions in 100% DMSO which were diluted with DMEM (Dulbecco's Modified Eagle's Medium) cell growth Medium (Invitrogen, Burlington, ON, Canada) containing 10% FBS (Fetal Bovine Serum) to concentrations ranging from 50 nM to 250 μM. Aliquots (20 μl) from each concentration were overlaid to 80 μl of the pre-seeded cells in the 96 well plates to make final concentrations of 10 nM to 50 μM. The cells were cultured for 5 days before the Sulforhodamine B assay (SRB) was performed to determine the compound's cell growth inhibition activity.
Sulforhodamine B (purchased from Sigma, Oakville, ON, Canada) is a water-soluble dye that binds to the basic amino acids of the cellular proteins. Thus, colorimetric measurement of the bound dye provides an estimate of the total protein mass that is related to the cell number. the cells are fixed in situ by gently aspirating off the culture media and adding 50 μl ice cold 10% Trichloroacetic Acid (TCA) per well and incubate at 4° C. for 30-60 min, The plates are washed with water five times and allowed to air dry for 5 min. Addition of 50 μl 0.4% (w/v) SRB solution in 1% (v/v) acetic acid to each well and incubatation for 30 min at RT completes the staining reaction. Following staining, plates are washed four times with 1% acetic acid to remove unbound dye and then allowed to air dry for 5 min. The stain is solubilized with 100 μl of 10 mM Tris pH 10.5 per well. Absorbance is read at 570 nm.
The percentage (%) of relative growth inhibition was calculated by comparing to DMSO treated only cells (100%). […] The GI50 was calculated using GraphPad PRISM software (GraphPad Software, Inc., San Diego, Calif., USA).
The test system of test [3] is MDA-MB-231 breast cancer cells. Kind of test: Cell growth inhibition, Sulforhodamine B assay, MDA-MB-231. The test is classed as cell-based. To be noted: Homo sapiens, 120 h, 5 days culture, SRB assay, read-out: Cell Line GI50 Range MDA-MB-231.
The subject of another test is HT29 colon cancer cells. Kind of test: Cell growth inhibition, Sulforhodamine B assay, HT29. It counts as cell-based. To be noted: 5 days culture, SRB assay, read-out: Cell Line GI50 Range HT29.
The next test addresses T3, Aurora B (Homo sapiens, UniProt Q96GD4).
T3 construct: purchased Invitrogen PV3970
The test can be described thus: Aurora B inhibition assay (Z-Lyte). The test is classed as biochemical. To be noted: 28 nM Aurora B, 128 μM ATP; read-out: IC50 Ranges Aurora B. As to the method: Aurora B inhibition was determined using the Z-Lyte assay kit from Invitrogen. The assay was performed using the recommended manufacturer's instructions with 128 μM ATP and 28 nM Aurora B (Invitrogen cat #PV3970). The % inhibition values were determined according to the manufacturer's directions and IC50 values were obtained using a non-linear 4 point logistic curve fit (XLfit4, IDBS)

Test [4] deals with MDA-MB-468 breast cancer cells. The test can be described thus: Cell growth inhibition, Sulforhodamine B assay, MDA-MB-468. The test is classed as cell-based. To be noted: 5 days culture, SRB assay, read-out: Cell Line GI50 Range MDA-MB-468.

Like-named read-outs stand apart in the source and are kept apart here.

T3 sequence (Q96GD4 whole entry): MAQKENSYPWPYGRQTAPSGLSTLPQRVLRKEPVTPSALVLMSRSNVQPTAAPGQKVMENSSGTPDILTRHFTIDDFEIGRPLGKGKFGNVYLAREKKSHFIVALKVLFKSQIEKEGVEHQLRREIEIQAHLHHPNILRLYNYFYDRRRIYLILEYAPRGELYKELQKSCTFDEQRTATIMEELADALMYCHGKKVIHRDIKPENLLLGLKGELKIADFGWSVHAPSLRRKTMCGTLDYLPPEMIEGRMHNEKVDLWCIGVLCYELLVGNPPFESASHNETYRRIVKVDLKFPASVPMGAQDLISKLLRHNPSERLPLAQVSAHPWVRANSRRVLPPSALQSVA

`COc1ccc(NC(=O)Nc2ccc3[nH]nc(-c4ccc(OC5CCN(C)CC5)cc4)c3c2)c(C)c1` [Example A81, 1-(4-methoxy-2-methylphenyl)-3-(3-(4-((1-methylpiperidin-4-yl)oxy)phenyl)-1H-indazol-5-yl)urea]: the IC50 on human PLK4, at human TTK and at Aurora B was at most 5 µM in each case. The GI50 was at most 5 µM in test [1] (Homo sapiens, HCT-116, 120 h); at most 5 µM in test [2] (120 h); 5 to 20 µM in test [3]; at most 5 µM in the test on HT29 colon cancer cells (Homo sapiens, HT-29, 120 h); at most 5 µM in test [4] (Homo sapiens, 120 h).

As for `O=C(Nc1ccc2[nH]nc(-c3ccc(N4CC(O)C4)cc3)c2c1)C(c1ccsc1)N1CCCC1` (stereo not drawn) [Example A120, N-(3-(4-(3-Hydroxyazetidin-1-yl)phenyl)-1H-indazol-5-yl)-2-(pyrrolidin-1-yl)-2-(thiophen-3-yl)acetamide], the 50% inhibitory concentration (IC50) at human PLK4, on human TTK and on Aurora B was at most 5 µM in each case. Besides, the 50% growth inhibitory concentration (GI50) was at most 5 µM in test [1] (Homo sapiens, HCT-116, 120 h); at most 5 µM in test [2] (120 h); at most 5 µM in the test with HT29 colon cancer cells (Homo sapiens, HT-29, 120 h); at most 5 µM in test [4] (Homo sapiens, 120 h).

For `O=C(NC(c1ccccc1)C1CC1)c1ccc2[nH]nc(-c3ccc(N[C@H]4CC[C@H](O)CC4)cc3)c2c1` (single isomer, unassigned) [Example A106, rel-N-(cyclopropyl(phenyl)methyl)-3-(4-(((1r,4r)-4-hydroxycyclohexyl)amino)phenyl)-1H-indazole-5-carboxamide], the IC50 at human PLK4, at human TTK and at Aurora B was at most 5 µM throughout. For the same molecule, the GI50 in test [1] (Homo sapiens, HCT-116, 120 h) is at most 5 µM; in test [2] (120 h), at most 5 µM; in the test with HT29 colon cancer cells (Homo sapiens, HT-29, 120 h), at most 5 µM; in test [4] (Homo sapiens, 120 h), at most 5 µM.

Regarding `O=C(Nc1ccc2[nH]nc(-c3ccc(N4CCOCC4)cc3)c2c1)C(c1cccs1)N1CCCC1` (stereo not drawn) [Example A82, N-(3-(4-morpholinophenyl)-1H-indazol-5-yl)-2-(pyrrolidin-1-yl)-2-(thiophen-2-yl)acetamide], the concentration for half-maximal inhibition (IC50) on human PLK4, at human TTK and on Aurora B was at most 5 µM throughout. Further, the GI50 in test [1] (Homo sapiens, HCT-116, 120 h) was at most 5 µM; in test [2] (120 h), at most 5 µM; in the test on HT29 colon cancer cells (Homo sapiens, HT-29, 120 h) it was at most 5 µM; in test [4] (Homo sapiens, 120 h) it was at most 5 µM.

Consider `O=C(Nc1ccc2[nH]nc(-c3ccc(N4CCC(O)CC4)cc3)c2c1)C(c1ccsc1)N1CCCCC1` (stereo not drawn) [Example A83, N-(3-(4-(4-hydroxypiperidin-1-yl)phenyl)-1H-indazol-5-yl)-2-(piperidin-1-yl)-2-(thiophen-3-yl)acetamide], for which the IC50 at human PLK4, on human TTK and on Aurora B was at most 5 µM throughout. For the same molecule, the concentration for 50% growth inhibition (GI50) in test [1] (Homo sapiens, HCT-116, 120 h) is at most 5 µM; in test [2] (120 h), at most 5 µM; in the test with HT29 colon cancer cells (Homo sapiens, HT-29, 120 h) it was at most 5 µM; in test [4] (Homo sapiens, 120 h) it was at most 5 µM.

On to `O=C(Nc1ccc2[nH]nc(-c3ccc(NC4CCC(O)CC4)cc3)c2c1)C(c1ccsc1)N1CCCC1` (stereo not drawn) [Example A105, rel-N-(3-(4-(((1r,4r)-4-hydroxycyclohexyl)amino)phenyl)-1H-indazol-5-yl)-2-(pyrrolidin-1-yl)-2-(thiophen-3-yl)acetamide], for which the 50% inhibitory concentration (IC50) on human PLK4, on human TTK and at Aurora B was at most 5 µM each time. Besides, the GI50 (in test [1]; in test [2]; in the test with HT29 colon cancer cells; in test [4]) was at most 5 µM in each case.

Turning to `Cc1ccccc1C(NC(=O)c1ccc2[nH]nc(-c3ccc(N4CCOCC4)cc3)c2c1)C1CC1` (stereo not drawn) [Example A119, N-(cyclopropyl(o-tolyl)methyl)-3-(4-morpholinophenyl)-1H-indazole-5-carboxamide], the IC50 at human PLK4, on human TTK and on Aurora B was at most 5 µM each time. Besides, the GI50 in test [1] (Homo sapiens, HCT-116, 120 h) is at most 5 µM; in test [2] (120 h), at most 5 µM; in the test on HT29 colon cancer cells (Homo sapiens, HT-29, 120 h), at most 5 µM; in test [4] (Homo sapiens, 120 h), at most 5 µM.

For the molecule `O=C(NC(c1ccsc1)C1CC1)c1ccc2[nH]nc(-c3ccc(OC4CCN(CCO)CC4)cc3)c2c1` (stereo not drawn) [Example A117, N-(cyclopropyl(thiophen-3-methyl-3-yl)methyl)-3-(4-((1-(2-hydroxyethyl)piperidin-4-yl)oxy)phenyl)-1H-indazole-5-carboxamide], the IC50 on human PLK4, at human TTK and at Aurora B was at most 5 µM in each case. Also, the GI50 was at most 5 µM in test [1] (Homo sapiens, HCT-116, 120 h); at most 5 µM in test [2] (120 h); at most 5 µM in the test with HT29 colon cancer cells (Homo sapiens, HT-29, 120 h); at most 5 µM in test [4] (Homo sapiens, 120 h).

For the molecule `O=C(NC(c1ccccc1)C1CC1)c1ccc2[nH]nc(-c3ccc(N4CCC(O)CC4)cc3)c2c1` (stereo not drawn) [Example A84, N-(cyclopropyl(phenyl)methyl)-3-(4-(4-hydroxypiperidin-1-yl)phenyl)-1H-indazole-5-carboxamide], the IC50 at human PLK4, on human TTK and at Aurora B was at most 5 µM throughout. The 50% growth inhibitory concentration (GI50) in test [1] (Homo sapiens, HCT-116, 120 h) is at most 5 µM; in test [2] (120 h), at most 5 µM; in the test on HT29 colon cancer cells (Homo sapiens, HT-29, 120 h), at most 5 µM; in test [4] (Homo sapiens, 120 h) it was at most 5 µM.

Regarding `C[C@@H]1CCCN1[C@@H](C(=O)Nc1ccc2[nH]nc(-c3ccc(N4CCOCC4)cc3)c2c1)c1ccsc1` [Example A97, (R)-2-((R)-2-methylpyrrolidin-1-yl)-N-(3-(4-morpholinophenyl)-1H-indazol-5-yl)-2-(thiophen-3-yl)acetamide], the half-maximal inhibitory concentration (IC50) at human PLK4, at human TTK and at Aurora B was at most 5 µM in each case. The concentration for 50% growth inhibition (GI50) was at most 5 µM in test [1] (Homo sapiens, HCT-116, 120 h); at most 5 µM in test [2] (120 h); at most 5 µM in the test with HT29 colon cancer cells (Homo sapiens, HT-29, 120 h); at most 5 µM in test [4] (Homo sapiens, 120 h).

For `CC(C)(O)C1CCN(c2ccc(-c3n[nH]c4ccc(NC(=O)C(c5ccsc5)N5CCCC5)cc34)cc2)CC1` (stereo not drawn) [Example A111, N-(3-(4-(4-(2-hydroxypropan-2-yl)piperidin-1-yl)phenyl)-1H-indazol-5-yl)-2-(pyrrolidin-1-yl)-2-(thiophen-3-yl)acetamide], the IC50 on human PLK4, at human TTK and on Aurora B was at most 5 µM throughout. Also, the concentration for 50% growth inhibition (GI50) in test [1] (Homo sapiens, HCT-116, 120 h) was at most 5 µM; in test [2] (120 h), at most 5 µM; with HT29 colon cancer cells (Homo sapiens, HT-29, 120 h), at most 5 µM; in test [4] (Homo sapiens, 120 h) it was at most 5 µM.

In general, IC50 refers to the point on the concentration scale where inhibition reaches its midpoint. As usually defined, the GI50 is the concentration at which growth is held to half of that of the control.
